From patent US20140039044A1, “Hydroxylated Polymethoxyflavone Compositions” (WLLGEN, INC., priority 2006, published 2014)
Like-named read-outs stand apart in the source and are kept apart here.

Key:
Assay type in all cases: cell-based, human
AGS cells [1] = assay: Cell cycle distribution by flow cytometry; conditions: for Cell Cycle Distribution G0/G1 / Cell Cycle Distribution G2/M / Cell Cycle Distribution S: 24 h, Table 11
Method in brief: (§1)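 Human cancer cells (2×10^5 per dish) exposed 24 h to compound at 5–100 μM, or DMSO. Cells ethanol-fixed at −20° C overnight, RNase/Triton-treated at 37° C for 30 min, then stained with propidium iodide. DNA content read by FACScan flow cytometry to give phase distribution.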

COLO205 cells [2] = assay: Cell cycle distribution by flow cytometry; conditions: COLO205 cells; for Cell Cycle Distribution G0/G1 / Cell Cycle Distribution G2/M / Cell Cycle Distribution S: 24 h, Table 12
Method in brief: as §1

HT-29 cells = assay: Apoptotic ratio by propidium iodide flow cytometry (AC50); conditions: read-out: Apoptosis-inducing AC50
Method in brief: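 HT-29 cells (2×10^5) were treated with compound for 24 h, then fixed in ice-cold ethanol overnight and treated with Triton X-100/RNase at 37 °C for 30 min. They were stained with propidium iodide (50 μg/mL solution) on ice for 30 min. The apoptotic fraction was measured from PI-DNA fluorescence by flow cytometry, and AC50 was reported.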

AGS cells [3] = assay: as above; conditions: AGS cells, read-out: Apoptosis-inducing AC50
Method in brief: (§2)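 AC50 denotes the concentration that induces 50% apoptosis. It was derived from propidium iodide–DNA fluorescence measured by flow cytometry after ethanol fixation and RNase treatment. Cells were seeded at 2×10^5, grown 24 h, then exposed to test compounds for 24 h.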

HL-60 cells [4] = assay: as above; conditions: HL-60 cells, read-out: Apoptosis-inducing AC50
Method in brief: as §2

COLO205 cells [5] = assay: as above; conditions: COLO205 cells, read-out: Apoptosis-inducing AC50
Method in brief: as §2

AGS cells [6] = assay: Cell survival assay (antiproliferative IC50); conditions: AGS cells, read-out: Antiproliferative IC50
HL-60 cells [7] = assay: Cell survival assay (antiproliferative IC50); conditions: HL-60 cells, read-out: Antiproliferative IC50
COLO205 cells [8] = assay: Cell survival assay (antiproliferative IC50); conditions: COLO205 cells, read-out: Antiproliferative IC50

Row | SMILES | Cell Cycle Distribution G0/G1 (AGS cells [1]; 5 μM) | Cell Cycle Distribution G2/M (AGS cells [1]; 5 μM) | Cell Cycle Distribution S (AGS cells [1]; 5 μM) | Cell Cycle Distribution G0/G1 (AGS cells [1]; 10 μM) | Cell Cycle Distribution G2/M (AGS cells [1]; 10 μM) | Cell Cycle Distribution S (AGS cells [1]; 10 μM) | Cell Cycle Distribution G0/G1 (AGS cells [1]; 25 μM) | Cell Cycle Distribution G2/M (AGS cells [1]; 25 μM) | Cell Cycle Distribution S (AGS cells [1]; 25 μM) | Cell Cycle Distribution G0/G1 (AGS cells [1]; 50 μM) | Cell Cycle Distribution G2/M (AGS cells [1]; 50 μM) | Cell Cycle Distribution S (AGS cells [1]; 50 μM) | Cell Cycle Distribution G0/G1 (AGS cells [1]; 100 μM) | Cell Cycle Distribution G2/M (AGS cells [1]; 100 μM) | Cell Cycle Distribution S (AGS cells [1]; 100 μM) | Cell Cycle Distribution G0/G1 (COLO205 cells [2]; 5 μM) | Cell Cycle Distribution G2/M (COLO205 cells [2]; 5 μM) | Cell Cycle Distribution S (COLO205 cells [2]; 5 μM) | Cell Cycle Distribution G0/G1 (COLO205 cells [2]; 10 μM) | Cell Cycle Distribution G2/M (COLO205 cells [2]; 10 μM) | further results
1 | COc1cc(-c2cc(=O)c3c(OC)c(OC)c(OC)c(OC)c3o2)ccc1O [Compound G, 4′-hydroxy-5,6,7,8,3′-pentamethoxyflavone] | 55.39 ± 0.47 | 16.76 ± 0.86 | 27.86 ± 1.32 | 60.42 ± 1.28 | 16.80 ± 1.75 | 22.79 ± 0.47 | 68.29 ± 0.95 | 14.39 ± 0.16 | 17.33 ± 0.80 | 62.27 ± 0.06 | 22.98 ± 1.90 | 14.78 ± 1.83 | 50.27 ± 0.52 | 26.85 ± 1.85 | 22.88 ± 2.38 | 67.93 ± 0.74 | 4.71 ± 0.18 | 27.36 ± 0.56 | 72.87 ± 2.37 | 4.51 ± 0.08 | Cell Cycle Distribution S (COLO205 cells [2]; 10 μM): 22.64 ± 2.28; Cell Cycle Distribution G0/G1 (COLO205 cells [2]; 25 μM): 73.74 ± 0.51; Cell Cycle Distribution G2/M (COLO205 cells [2]; 25 μM): 6.47 ± 0.93; Cell Cycle Distribution S (COLO205 cells [2]; 25 μM): 19.80 ± 0.42; Cell Cycle Distribution G0/G1 (COLO205 cells [2]; 50 μM): 73.90 ± 0.41; Cell Cycle Distribution G2/M (COLO205 cells [2]; 50 μM): 8.17 ± 0.23; Cell Cycle Distribution S (COLO205 cells [2]; 50 μM): 17.94 ± 0.17; Cell Cycle Distribution G0/G1 (COLO205 cells [2]; 100 μM): 73.05 ± 0.30; Cell Cycle Distribution G2/M (COLO205 cells [2]; 100 μM): 7.61 ± 0.46; Cell Cycle Distribution S (COLO205 cells [2]; 100 μM): 19.35 ± 0.76; AC50 (HT-29 cells; Homo sapiens): > 100 µM; AC50 (AGS cells [3]; Homo sapiens): > 100 µM; AC50 (HL-60 cells [4]; Homo sapiens): 87.1 ± 7.83 µM; AC50 (COLO205 cells [5]; Homo sapiens, COLO 205): > 100 µM; IC50 (AGS cells [6]; Homo sapiens): 70.5 ± 9.97 µM; IC50 (HL-60 cells [7]; Homo sapiens): 47.4 ± 3.64 µM; IC50 (COLO205 cells [8]; Homo sapiens, COLO 205): 83.7 ± 4.96 µM
2 | COc1ccc(-c2cc(=O)c3c(O)c(OC)c(OC)c(OC)c3o2)cc1O [Compound K, 5,3′-dihydroxy-6,7,8,4′-tetramethoxyflavone] | 51.75 ± 0.73 | 13.65 ± 0.18 | 34.61 ± 0.91 | 22.20 ± 1.56 | 48.12 ± 1.35 | 26.69 ± 0.91 | 42.63 ± 0.05 | 34.57 ± 0.62 | 22.81 ± 0.51 | 43.90 ± 2.37 | 35.67 ± 2.29 | 20.44 ± 0.08 | 50.77 ± 1.01 | 31.20 ± 0.43 | 18.04 ± 1.45 | 57.68 ± 0.42 | 7.08 ± 0.20 | 34.52 ± 0.21 | 65.81 ± 0.83 | 1.75 ± 0.47 | G2/M cell cycle arrest, in words (AGS cells [1]): strongly potentiated the G2/M cell cycle arrest; G2/M cell cycle arrest, in words (COLO205 cells [2]): strongly potentiated the G2/M cell cycle arrest; Cell Cycle Distribution S (COLO205 cells [2]; 10 μM): 32.44 ± 2.28; Cell Cycle Distribution G0/G1 (COLO205 cells [2]; 25 μM): 66.63 ± 1.51; Cell Cycle Distribution G2/M (COLO205 cells [2]; 25 μM): 13.31 ± 1.91; Cell Cycle Distribution S (COLO205 cells [2]; 25 μM): 20.06 ± 0.40; Cell Cycle Distribution G0/G1 (COLO205 cells [2]; 50 μM): 42.30 ± 1.12; Cell Cycle Distribution G2/M (COLO205 cells [2]; 50 μM): 23.42 ± 0.83; Cell Cycle Distribution S (COLO205 cells [2]; 50 μM): 34.29 ± 0.29; Cell Cycle Distribution G0/G1 (COLO205 cells [2]; 100 μM): 43.58 ± 2.29; Cell Cycle Distribution G2/M (COLO205 cells [2]; 100 μM): 22.85 ± 2.96; Cell Cycle Distribution S (COLO205 cells [2]; 100 μM): 33.57 ± 0.67; AC50 (HT-29 cells; Homo sapiens): > 100 µM; AC50 (AGS cells [3]; Homo sapiens): 70 ± 1.4 µM; AC50 (HL-60 cells [4]; Homo sapiens): > 100 µM; AC50 (COLO205 cells [5]; Homo sapiens, COLO 205): > 100 µM; IC50 (AGS cells [6]; Homo sapiens): 9.61 µM; IC50 (HL-60 cells [7]; Homo sapiens): 10 µM; IC50 (COLO205 cells [8]; Homo sapiens, COLO 205): 11.2 µM
3 | COc1ccc(-c2oc3c(OC)c(OC)c(OC)c(OC)c3c(=O)c2OC)cc1OC [D, 3,5,6,7,8,3,4-heptamethoxyflavone, reference compound] | 37.6 ± 0.92 | 0.4 ± 0.57 | 62.4 ± 0.85 | 44.2 ± 0.14 | 1.3 ± 0.42 | 55.2 ± 0.42 | 46.6 ± 0.35 | 4.7 ± 0.14 | 48.8 ± 0.42 | 48.0 ± 0.14 | 6.9 ± 0.42 | 45.7 ± 0.35 | 63.2 ± 0.78 | 4.0 ± 0.14 | 33.0 ± 0.49 | 60.81 ± 0.62 | 0.04 ± 0.05 | 39.16 ± 0.67 | 60.58 ± 0.57 | 0.40 ± 0.04 | Cell Cycle Distribution S (COLO205 cells [2]; 10 μM): 39.02 ± 0.61; Cell Cycle Distribution G0/G1 (COLO205 cells [2]; 25 μM): 61.91 ± 0.35; Cell Cycle Distribution G2/M (COLO205 cells [2]; 25 μM): 9.28 ± 0.59; Cell Cycle Distribution S (COLO205 cells [2]; 25 μM): 28.82 ± 0.23; Cell Cycle Distribution G0/G1 (COLO205 cells [2]; 50 μM): 68.87 ± 1.53; Cell Cycle Distribution G2/M (COLO205 cells [2]; 50 μM): 6.10 ± 2.64; Cell Cycle Distribution S (COLO205 cells [2]; 50 μM): 25.03 ± 1.12; Cell Cycle Distribution G0/G1 (COLO205 cells [2]; 100 μM): 75.17 ± 0.05; Cell Cycle Distribution G2/M (COLO205 cells [2]; 100 μM): 5.72 ± 0.64; Cell Cycle Distribution S (COLO205 cells [2]; 100 μM): 19.12 ± 0.69; AC50 (HT-29 cells): > 100 µM; AC50 (AGS cells [3]): > 100 µM; AC50 (HL-60 cells [4]): > 100 µM; AC50 (COLO205 cells [5]): > 100 µM; IC50 (AGS cells [6]): > 100 µM; IC50 (HL-60 cells [7]): 54.4 ± 0.9 µM; IC50 (COLO205 cells [8]): 62.5 ± 1.81 µM
